Experimental data taken from patent US11214594B2, “Antimicrobial peptide having synergistic antibacterial effect with antibiotics on multidrug resistant bacteria, and use thereof” (priority 2016, dated 2022).
In brackets after ≈: the same amount, converted by molar mass. Where a SMILES comes first, the peptide text is derived from it. [ ]: non-standard residue; d: D form.

Legend:
A. baumannii [1] = assay: MIC of antibiotic during combined treatment with antimicrobial peptide; assay type: cell-based, Acinetobacter baumannii; conditions: A. baumannii
Method in brief: (§1)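 First, antibiotic solution is diluted with MH medium; next, the dilution is dispensed into wells containing peptide; finally, the orientation is swapped and MIC of each mixture determined.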

MDRAB 12035 = assay type: cell-based, Acinetobacter baumannii
Protocol: (§2) A synergistic effect of a peptide and antibiotics was evaluated at antibacterial activity against a strain by using an MIC value determined for each mixed solution. For the evaluation, a fractional inhibitory concentration (FIC) value was used (Elion, Gertrude B., Samuel Singer, and George H. Hitchings. Journal of Biological Chemistry 208.2 (1954): 477-488.).
(§3) A method generally used to decide the synergistic effect by using the FIC values is a checkerboard assay, and is a method that selects the lowest FIC index value in a well in which the growth of bacteria is suppressed. However, the selection of one FIC index in the method has a problem in that when the antibacterial activity of the antibiotics is lower, the FIC index is calculated so as to have a big synergistic effect, and is not accurate and has many experimental errors. Thus, with respect to the FIC index calculated by [Equation 1], an average FIC index was again calculated by using the following [Equation 2] (He, Jing, Charles G. Starr, and William C. Wimley. Biochimica et Biophysica Acta (BBA)-Biomembranes 1848.1 (2015): 8-15.).

A. baumannii [2] = assay type: cell-based, Acinetobacter baumannii
Protocol: as §2, §3

E. coli [3] = assay: microbe, parasite or virus in culture; assay type: cell-based, Escherichia coli; conditions: 16 h
Method in brief: (§4)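 Broth microdilution in MH medium: bacterial strains diluted to 2×10^6 CFU were mixed with equal volumes of peptide serially diluted twofold in MH medium.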

MDREC 1229 [4] = assay: microbe, parasite or virus in culture; assay type: cell-based, Escherichia coli; conditions: MDREC 1229
Method in brief: as §4

MDRST 8009 = assay type: cell-based, Salmonella typhimurium; conditions: agent alone
Method in brief: as §4

[5] = test system: multi-drug resistant bacteria; assay: MIC, summary statements for multi-drug resistant bacteria; assay type: cell-based
Method in brief: as §4

E. coli [6] = assay: MIC of antibiotic during combined treatment with antimicrobial peptide; assay type: cell-based, Escherichia coli; conditions: for Antibiotic MIC, Erythromycin / Antibiotic MIC, Linezolid / Antibiotic MIC, Vancomycin: E. coli
Method in brief: as §1

E. coli [7] = assay type: cell-based, Escherichia coli
Protocol: as §2, §3

MDREC 1229 [8] = assay type: cell-based, Escherichia coli
Protocol: as §2, §3

[9] = combined with peptide at 1 μg/ml
[10] = combined with peptide at 2 μg/ml
[11] = combined with peptide at 4 μg/ml
[12] = combined with peptide at 6 μg/ml
[13] = combined with peptide at 8 μg/ml
[14] = combined with peptide at 16 μg/ml
[15] = combined with peptide at 32 μg/ml
[16] = combined with peptide at 64 μg/ml
[17] = peptide combined with erythromycin
[18] = peptide combined with linezolid
[19] = peptide combined with vancomycin

CC[C@H](C)[C@H](NC(=O)[C@H](CCCCN)NC(=O)[C@H](Cc1c[nH]c2ccccc12)NC(=O)[C@@H](N)CCCNC(=N)N)C(=O)N[C@@H](Cc1ccccc1)C(=O)N[C@@H](CCCCN)C(=O)N[C@@H](CCCCN)C(=O)N[C@H](C(=O)N[C@H](CC(C)C)C(=O)N[C@@H](CCCCN)C(=O)N[C@@H](CC(C)C)C(=O)N[C@@H](CC(C)C)C(=O)N[C@@H](Cc1c[nH]cn1)C(=O)N[C@@H](CCCCN)C(=O)N[C@@H](Cc1ccccc1)C(=O)N[C@@H](CCCCN)C(=O)N[C@@H](CCCCN)C(=O)N[C@@H](Cc1ccccc1)C(N)=O)[C@@H](C)CC [PapMA-21, RWK IFK KIl KLL HKF KKF-NH2] (H-RWKIFKKI[dL]KLLHKFKKF-NH2; N-terminus assumed)
Antibiotic MIC, Erythromycin (A. baumannii [1]; [9]): 32 µg/mL | Antibiotic MIC, Linezolid (A. baumannii [1]; [9]): >128 µg/mL | Antibiotic MIC, Vancomycin (A. baumannii [1]; [9]): >128 µg/mL | Antibiotic MIC, Erythromycin (A. baumannii [1]; [10]): 32 µg/mL | Antibiotic MIC, Linezolid (A. baumannii [1]; [10]): >128 µg/mL | Antibiotic MIC, Vancomycin (A. baumannii [1]; [10]): >128 µg/mL | Antibiotic MIC, Erythromycin (A. baumannii [1]; [11]): 8 µg/mL | Antibiotic MIC, Linezolid (A. baumannii [1]; [11]): 32 µg/mL | Antibiotic MIC, Vancomycin (A. baumannii [1]; [11]): 64 µg/mL | Antibiotic MIC, Erythromycin (A. baumannii [1]; [12]): 2 µg/mL | Antibiotic MIC, Linezolid (A. baumannii [1]; [12]): 16 µg/mL | Antibiotic MIC, Vancomycin (A. baumannii [1]; [12]): 32 µg/mL | Antibiotic MIC, Erythromycin (A. baumannii [1]; [13]): 1 µg/mL | Antibiotic MIC, Linezolid (A. baumannii [1]; [13]): 16 µg/mL | Antibiotic MIC, Vancomycin (A. baumannii [1]; [13]): 16 µg/mL | Antibiotic MIC, Erythromycin (A. baumannii [1]; [14]): 0.25 µg/mL | Antibiotic MIC, Linezolid (A. baumannii [1]; [14]): 2 µg/mL | Antibiotic MIC, Vancomycin (A. baumannii [1]; [14]): 8 µg/mL | Antibiotic MIC, Erythromycin (A. baumannii [1]; [15]): 0 µg/mL | Antibiotic MIC, Linezolid (A. baumannii [1]; [15]): 0 µg/mL | Antibiotic MIC, Vancomycin (A. baumannii [1]; [15]): 0 µg/mL | Antibiotic MIC, Erythromycin (A. baumannii [1]; [16]): 0 µg/mL | Antibiotic MIC, Linezolid (A. baumannii [1]; [16]): 0 µg/mL | Antibiotic MIC, Vancomycin (A. baumannii [1]; [16]): 0 µg/mL | Average FIC index, Erythromycin (MDRAB 12035; [17]): 0.49 | Average FIC index, Linezolid (MDRAB 12035; [18]): 0.22 | Average FIC index, Vancomycin (MDRAB 12035; [19]): 0.17 | Average FIC index, Erythromycin (A. baumannii [2]; [17]): 0.40 | Average FIC index, Linezolid (A. baumannii [2]; [18]): 0.35 | Average FIC index, Vancomycin (A. baumannii [2]; [19]): 0.11 | Minimal inhibitory concentration MIC (E. coli [3]): 32 µg/mL (≈ 13.3 µM) | Minimal inhibitory concentration MIC (MDREC 1229 [4]; agent alone): 32 µg/mL (≈ 13.3 µM) | Peptide MIC, peptide alone (MDREC 1229 [4]; peptide alone, no antibiotic): 32 µg/mL | Minimal inhibitory concentration MIC (MDRST 8009): 32 µg/mL (≈ 13.3 µM) | Antibacterial activity relative to PapMA-1 [5]: twice to four times higher | Synergistic effect of antibacterial activity with existing antibiotics compared with PapMA-1 (E. coli [6]; E. coli and MDREC1229): level similar to that of the PapMA-1 peptide | Antibiotic MIC, Erythromycin (E. coli [6]; erythromycin combined with peptide at 1 μg/ml): 64 µg/mL | Antibiotic MIC, Erythromycin (E. coli [6]; erythromycin combined with peptide at 2 μg/ml): 32 µg/mL | Antibiotic MIC, Erythromycin (E. coli [6]; erythromycin combined with peptide at 4 μg/ml): 8 µg/mL | Antibiotic MIC, Erythromycin (E. coli [6]; erythromycin combined with peptide at 6 μg/ml): 2 µg/mL | Antibiotic MIC, Erythromycin (E. coli [6]; erythromycin combined with peptide at 8 μg/ml): 1 µg/mL | Antibiotic MIC, Erythromycin (E. coli [6]; erythromycin combined with peptide at 16 μg/ml): 0.25 µg/mL | Antibiotic MIC, Erythromycin (E. coli [6]; erythromycin combined with peptide at 32 μg/ml): 0 µg/mL | Antibiotic MIC, Erythromycin (E. coli [6]; erythromycin combined with peptide at 64 μg/ml): 0 µg/mL | Antibiotic MIC, Linezolid (E. coli [6]; linezolid combined with peptide at 1 μg/ml): >128 µg/mL | Antibiotic MIC, Linezolid (E. coli [6]; linezolid combined with peptide at 2 μg/ml): 128 µg/mL | Antibiotic MIC, Linezolid (E. coli [6]; linezolid combined with peptide at 4 μg/ml): 64 µg/mL | Antibiotic MIC, Linezolid (E. coli [6]; linezolid combined with peptide at 6 μg/ml): 32 µg/mL | Antibiotic MIC, Linezolid (E. coli [6]; linezolid combined with peptide at 8 μg/ml): 16 µg/mL | Antibiotic MIC, Linezolid (E. coli [6]; linezolid combined with peptide at 16 μg/ml): 8 µg/mL | Antibiotic MIC, Linezolid (E. coli [6]; linezolid combined with peptide at 32 μg/ml): 0 µg/mL | Antibiotic MIC, Linezolid (E. coli [6]; linezolid combined with peptide at 64 μg/ml): 0 µg/mL | Antibiotic MIC, Vancomycin (E. coli [6]; vancomycin combined with peptide at 1 μg/ml): >128 µg/mL | Antibiotic MIC, Vancomycin (E. coli [6]; vancomycin combined with peptide at 2 μg/ml): >128 µg/mL | Antibiotic MIC, Vancomycin (E. coli [6]; vancomycin combined with peptide at 4 μg/ml): >128 µg/mL | Antibiotic MIC, Vancomycin (E. coli [6]; vancomycin combined with peptide at 6 μg/ml): 64 µg/mL | Antibiotic MIC, Vancomycin (E. coli [6]; vancomycin combined with peptide at 8 μg/ml): 32 µg/mL | Antibiotic MIC, Vancomycin (E. coli [6]; vancomycin combined with peptide at 16 μg/ml): 8 µg/mL | Antibiotic MIC, Vancomycin (E. coli [6]; vancomycin combined with peptide at 32 μg/ml): 0 µg/mL | Antibiotic MIC, Vancomycin (E. coli [6]; vancomycin combined with peptide at 64 μg/ml): 0 µg/mL | Average FIC index, Erythromycin (E. coli [7]; [17]): 0.15 | Average FIC index, Linezolid (E. coli [7]; [18]): 0.35 | Average FIC index, Vancomycin (E. coli [7]; [19]): 0.21 | Average FIC index, Erythromycin (MDREC 1229 [8]; [17]): 0.15 | Average FIC index, Linezolid (MDREC 1229 [8]; [18]): 0.28 | Average FIC index, Vancomycin (MDREC 1229 [8]; [19]): 0.26
